Experimental findings from patent US20210113640A1, “COMPOSITION FOR PROMOTING HAIR GROWTH OR PREVENTING HAIR LOSS CONTAINING EXTRACT OF ASTER AGERATOIDES” (KOREA INSTITUTE OF SCIENCE AND TECHNOLOGY, priority 2019, published 2021) are described below.

Experiment [1] has as its system lipid peroxide production in liver homogenate. Kind of experiment: Inhibition of lipid peroxide formation in rat liver homogenate (TBA method). The experiment is classed as biochemical, Sprague-Dawley rats. The note with it: positive controls, FeSO4/ascorbic acid, 37° C., 30 minutes, mean ± standard error, read-out: Lipid peroxide production inhibitory activity IC50. As to the method:
Lipid peroxide is a substance produced by peroxidation of lipids through various oxidation reactions. Reactive oxygen species, free radicals and the like oxidize phospholipids of cell membranes containing great amounts of unsaturated fatty acids, producing lipid peroxides in the cell membranes. […] The animals used in the experiment were male Sprague-Dawley rats, and only water was supplied for 24 hours before the experiment.

Experiment [2] deals with hair growth in C57BL/6 mice skin tissue. Kind of experiment: Induction of hair growth phase in depilated C57BL/6 mice (topical, 30 days). It is filed as in vivo. Conditions: applied once a day for 30 days. On the procedure:
6-week-old C57BL/6 female mice with white or pink back skin were used as experimental animals and the experiment was conducted according to guidelines for the management and use of laboratory animals approved by the Animal Research Ethics Committee of the Korea Institute of Science and Technology (approval number: […]-2018-081). […] The back hairs of the mice were depilated using an electric shaver and a test substance was applied to the depilated area once a day for 30 days. […] 30 days after treatment with the sample, the hairs were randomly collected, the thickness and length of the hairs were measured, and the results are shown in FIG. 3 and Table 1. On the last day of application of the test substance, the mice were sacrificed to obtain skin tissues, and then tissues were fixed with paraffin and then prepared into tissue slices. These were stained with hematoxylin and eosin (H&E) and observed under a microscope (100×), and the results are shown in FIG. 4.

Where [3] appears, read: A. ageratoides 1%, minoxidil 3%.

For the molecule `Cc1c(C)c2c(c(C)c1O)CCC(C)(C(=O)O)O2` (centres unmarked) [Trolox], the IC50 (as a rule, the concentration at which inhibition is half-maximal) in experiment [1] was greater than 100 µM.
As to `Nc1cc(N2CCCCC2)nc(N)[n+]1[O-]` [Minoxidil, minoxidil], the hair thickness in experiment [2] (1% Aster ageratoides extract, 3% minoxidil) is listed as 53.19±4.04 μm. For the same molecule, in experiment [2] (setting [3]), the Hair length is reported as 6-9 mm and the Hair width worked out at 53.2 ± 4.04 µm. In addition, the Hair length in experiment [2] (A. ageratoides 1%, minoxidil 3%, listed as positive control) was in the range of 6 to 9 mm.
